Measurements taken from the supplement of paper PMC8882468.

Legend:
Assay in all cases: CTG-3D luminescence at 96 h relative to day-0 seeding control (ratio to day 0); higher = more growth / less cytotoxicity; PDxO 3D drug screen, 96 h, CTG-3D normalised to day-0 seeding control.
HCI-002 = system: HCI-002 (organoid from a triple-negative breast cancer xenograft)
HCI-012 = system: HCI-012 (organoid from a breast cancer xenograft)
HCI-023 = system: HCI-023 (organoid from a triple-negative breast cancer xenograft)
HCI-024 = system: HCI-024 (organoid from a breast cancer xenograft)
HCI-025 = system: HCI-025 (organoid from a breast cancer xenograft)

C=CCn1c(=O)c2cnc(Nc3ccc(N4CCN(C)CC4)cc3)nc2n1-c1cccc(C(C)(C)O)n1 [adavosertib]
CTG-3D luminescence at 96 h
Details | 12.5 pM | 0.00025 µM | 0.005 µM | 0.1 µM | 1 µM | 10 µM | 100 µM | 625 fM
HCI-002, days in culture: 62 | 3.1 | 2.91 | 2.73 | 2.4 | 1.32 | 0.225 | 0.324 | 2.86
HCI-002, days in culture: 82 | 2.82 | 2.68 | 2.02 | 2.52 | 1.53 | 0.198 | 0.134 | 2.69
HCI-002, days in culture: 91 | 3.69 | 3.67 | 3.79 | 3.35 | 1.82 | 0.274 | 0.495 | 4.31
HCI-002, days in culture: 191 | 2.59 | 2.7 | 2.5 | 2.3 | 1.76 | 0.247 | 0.507 | 2.47
HCI-002, days in culture: 209 | 2.27 | 2.42 | 2.11 | 1.89 | 1.5 | 0.217 | 0.128 | 2.35
HCI-002, days in culture: 227 | 6.7 | 6.34 | 6.07 | 6.24 | 2.13 | 0.312 | 0.123 | 6.55
HCI-012, days in culture: 143 | 1.94 | 1.86 | 2.1 | 2.56 | 2.11 | 0.226 | 0.0167 | 2.06
HCI-012, days in culture: 162 | 2.21 | 2.27 | 2.02 | 3.54 | 2.56 | 0.304 | 0.0282 | 3.03
HCI-012, days in culture: 201 | 2.67 | 2.07 | 1.6 | 1.66 | 2.25 | 0.091 | 0.0326 | 1.71
HCI-023, days in culture: 111 | 1.63 | 1.12 | 1.18 | 1.1 | 0.554 | 0.112 | 0.0325 | 1.39
HCI-023, days in culture: 128 | 1.68 | 1.92 | 1.34 | 1.47 | 0.441 | 0.148 | 0.06302 | 1.85
HCI-024, days in culture: 105 | 1.61 | 1.66 | 1.14 | 1.44 | 0.852 | 0.412 | 0.179 | 2.06
HCI-024, days in culture: 122 | 1.86 | 2.07 | 1.99 | 2.01 | 1.38 | 0.414 | 0.145 | 2.52
HCI-024, days in culture: 163 | 2.11 | 2.21 | 1.86 | 2.44 | 1.82 | 0.466 | 0.225 | 2.56
HCI-025, days in culture: 172 | 2.76 | 1.83 | 3.85 | 2 | 1.8 | 0.188 | 0.128 | 1.79
HCI-025, days in culture: 209 | 1.68 | 1.93 | 1.69 | 1.36 | 1.03 | 0.124 | 0.157 | 2.05
HCI-025, days in culture: 218 | 1.7 | 1.86 | 1.94 | 1.75 | 1.05 | 0.215 | 0.0695 | 1.86

CC(C)(C(=O)NCC(F)(F)C(F)(F)F)C(=O)N[C@@H]1C(=O)Nc2ccccc2-c2ccccc21
CTG-3D luminescence at 96 h
Details | 12.5 pM | 0.00025 µM | 0.005 µM | 0.1 µM | 1 µM | 10 µM | 100 µM | 625 fM
HCI-002, days in culture: 62 | 2.81 | 2.3 | 2.94 | 2.74 | 2.12 | 3.01 | 2.47 | 2.63
HCI-002, days in culture: 82 | 3.56 | 2.71 | 2.34 | 2.94 | 2.61 | 3.03 | 1.34 | 3.05
HCI-002, days in culture: 91 | 4.71 | 3.94 | 3.16 | 3.91 | 2.99 | 3.51 | 2.15 | 4.61
HCI-002, days in culture: 191 | 2.82 | 2.44 | 2.45 | 2.13 | 2.48 | 2.26 | 1.81 | 2.66
HCI-002, days in culture: 209 | 2.45 | 2.57 | 2.38 | 2.22 | 2.25 | 1.91 | 1.55 | 2.4
HCI-002, days in culture: 227 | 5.87 | 5.33 | 5.89 | 5.45 | 4.95 | 5.63 | 2.44 | 6.16
HCI-012, days in culture: 143 | 1.62 | 1.71 | 1.71 | 2.2 | 2.22 | 2.41 | 1.37 | 1.72
HCI-012, days in culture: 162 | 2.77 | 1.65 | 1.36 | 2.46 | 1.82 | 2.59 | 1.53 | 3.16
HCI-012, days in culture: 201 | 2.67 | 2.23 | 1.91 | 1.9 | 2.48 | 1.51 | 2.23 | 1.61
HCI-023, days in culture: 111 | 1.36 | 1.08 | 0.961 | 0.975 | 0.945 | 1.09 | 0.672 | 1.53
HCI-023, days in culture: 128 | 1.61 | 1.47 | 1.06 | 1.27 | 1.17 | 1.65 | 0.804 | 1.64
HCI-024, days in culture: 105 | 1.79 | 1.33 | 0.962 | 1.85 | 1.67 | 2.09 | 1.22 | 1.91
HCI-024, days in culture: 122 | 2.28 | 1.94 | 1.8 | 1.67 | 1.64 | 2.55 | 1.21 | 3.41
HCI-024, days in culture: 163 | 2.14 | 2.11 | 1.38 | 2.27 | 2.12 | 2.52 | 1.71 | 2.36
HCI-025, days in culture: 172 | 2.02 | 2.24 | 3.81 | 2.44 | 2.2 | 2.06 | 0.839 | 2.75
HCI-025, days in culture: 209 | 1.5 | 1.73 | 1.93 | 1.61 | 1.83 | 2.01 | 0.831 | 1.47
HCI-025, days in culture: 218 | 2.02 | 1.91 | 1.95 | 1.42 | 1.45 | 2.15 | 1.22 | 2.19

C[C@@H]1COCCN1c1cc(C2([S@](C)(=N)=O)CC2)nc(-c2cc[nH]c3nccc2-3)n1 [ceralasertib]
CTG-3D luminescence at 96 h
Details | 12.5 pM | 0.00025 µM | 0.005 µM | 0.1 µM | 1 µM | 10 µM | 100 µM | 625 fM
HCI-002, days in culture: 62 | 2.73 | 2.51 | 2.76 | 3.04 | 1.81 | 1.12 | 0.574 | 2.93
HCI-002, days in culture: 82 | 2.71 | 2.85 | 2.13 | 2.4 | 1.5 | 0.818 | 0.274 | 2.8
HCI-002, days in culture: 91 | 4.35 | 3.4 | 4.02 | 3.58 | 2.23 | 1.3 | 0.523 | 4.14
HCI-002, days in culture: 191 | 2.46 | 2.89 | 2.17 | 2.66 | 1.91 | 0.976 | 0.332 | 2.6
HCI-002, days in culture: 209 | 2.37 | 2.28 | 1.9 | 2 | 1.41 | 0.743 | 0.29 | 2.27
HCI-002, days in culture: 227 | 6.44 | 5.73 | 5.38 | 5.47 | 3.08 | 1.48 | 0.366 | 6.05
HCI-012, days in culture: 143 | 2.09 | 2.04 | 2.05 | 2.14 | 1.8 | 0.748 | 0.319 | 2.02
HCI-012, days in culture: 162 | 2.52 | 2.31 | 2.18 | 3.14 | 1.92 | 1.3 | 0.451 | 3.18
HCI-012, days in culture: 201 | 2.62 | 2.22 | 1.56 | 1.68 | 2.3 | 0.577 | 0.973 | 1.75
HCI-023, days in culture: 111 | 1.26 | 1.25 | 0.897 | 1.31 | 0.756 | 0.365 | 0.252 | 1.5
HCI-023, days in culture: 128 | 1.69 | 1.4 | 1.37 | 1.51 | 0.689 | 0.634 | 0.38 | 1.35
HCI-024, days in culture: 105 | 1.68 | 1.61 | 1.35 | 1.5 | 0.841 | 0.567 | 0.521 | 1.93
HCI-024, days in culture: 122 | 2.12 | 2.11 | 1.89 | 2 | 1.23 | 0.742 | 0.54 | 2.57
HCI-024, days in culture: 163 | 1.95 | 1.91 | 1.68 | 2.32 | 1.38 | 0.897 | 0.977 | 2.29
HCI-025, days in culture: 172 | 2.29 | 1.93 | 3.61 | 2.46 | 1.59 | 0.359 | 0.297 | 1.92
HCI-025, days in culture: 209 | 1.3 | 1.6 | 1.64 | 1 | 0.856 | 0.386 | 0.184 | 1.38
HCI-025, days in culture: 218 | 1.86 | 1.85 | 2.07 | 1.64 | 0.97 | 0.482 | 0.269 | 1.88

CC(=O)O[C@H]1C(=O)[C@@]2(C)[C@H]([C@H](OC(=O)c3ccccc3)[C@]3(O)C[C@H](OC(=O)[C@H](O)[C@@H](NC(=O)c4ccccc4)c4ccccc4)C(C)=C1C3(C)C)[C@]1(OC(C)=O)CO[C@@H]1C[C@@H]2O [paclitaxel]
CTG-3D luminescence at 96 h
Details | 12.5 pM | 0.00025 µM | 0.005 µM | 0.1 µM | 1 µM | 10 µM | 100 µM | 625 fM
HCI-002, days in culture: 62 | 2.36 | 2.52 | 1.34 | 0.186 | 0.146 | 0.236 | 0.316 | 2.73
HCI-002, days in culture: 82 | 3.27 | 3.2 | 0.859 | 0.217 | 0.193 | 0.224 | 0.174 | 2.8
HCI-002, days in culture: 91 | 3.82 | 3.68 | 1.54 | 0.26 | 0.19 | 0.258 | 0.36 | 4.44
HCI-002, days in culture: 191 | 2.76 | 2.96 | 1.17 | 0.23 | 0.192 | 0.252 | 0.474 | 2.61
HCI-002, days in culture: 209 | 2.24 | 2.21 | 1.2 | 0.194 | 0.195 | 0.158 | 0.174 | 2.26
HCI-002, days in culture: 227 | 5 | 5.22 | 3 | 0.418 | 0.279 | 0.365 | 0.464 | 5
HCI-012, days in culture: 143 | 1.61 | 1.85 | 0.96 | 0.518 | 0.54 | 0.829 | 0.769 | 1.71
HCI-012, days in culture: 162 | 2.5 | 2.34 | 1.11 | 0.633 | 0.571 | 1.14 | 1.16 | 2.67
HCI-012, days in culture: 201 | 1.12 | 0.271 | 0.477 | 0.241 | 0.609 | 0.237 | 1.01 | 0.564
HCI-023, days in culture: 111 | 1.34 | 1.27 | 0.476 | 0.484 | 0.433 | 0.474 | 0.492 | 1.58
HCI-023, days in culture: 128 | 1.36 | 1.38 | 0.502 | 0.609 | 0.483 | 0.786 | 0.605 | 1.41
HCI-024, days in culture: 105 | 1.8 | 1.38 | 1.01 | 1.4 | 1.57 | 1.68 | 1.11 | 1.85
HCI-024, days in culture: 122 | 2.07 | 2.67 | 1.5 | 1.34 | 1.62 | 2.3 | 1.13 | 2.79
HCI-024, days in culture: 163 | 1.62 | 1.72 | 1.29 | 1.68 | 1.65 | 2.37 | 1.26 | 1.56
HCI-025, days in culture: 172 | 1.17 | 0.343 | 0.553 | 0.314 | 0.362 | 0.295 | 0.584 | 0.698
HCI-025, days in culture: 209 | 2.09 | 2.2 | 1.75 | 0.281 | 0.353 | 0.301 | 0.767 | 2
HCI-025, days in culture: 218 | 1.85 | 2.18 | 1.43 | 0.199 | 0.168 | 0.213 | 0.507 | 1.92
